{"source": "patent US20230398130A1", "about": "“METHODS AND COMPOSITIONS FOR DIFFERENTIATING STEM CELLS” (Massachusetts Institute of Technology, priority 2020, published 2023)", "key": {"[1]": {"test_system": "ISC-enriched organoids", "assay": "Primary screen, 384-well 2.5-D organoid differentiation (ENR+CD, 6 days): basal lysozyme secretion (LYZ.NS)", "assay_type": "cell-based, murine", "details": "for Dose.FC.LYZ.NS / Z.LYZ.NS: primary screen; for Dose.FC.LYZ.NS: ENR+CD 6 days, FC vs plate median; for Z.LYZ.NS: standard z score of FC", "from_the_text": "(§1) High-throughput screening."}, "[2]": {"test_system": "ISC-enriched organoids", "assay": "Primary screen, 384-well 2.5-D organoid differentiation (ENR+CD, 6 days): carbachol-induced lysozyme secretion (LYZ.S)", "assay_type": "cell-based, murine", "details": "for Dose.FC.LYZ.S: primary screen, ENR+CD 6 days, FC vs plate median", "from_the_text": "as §1"}, "[3]": {"test_system": "ISC-enriched organoids", "assay": "Primary screen, 384-well 2.5-D organoid differentiation (ENR+CD, 6 days, Target Selective Inhibitor Library, vs whole-plate median): ATP (CellTiter-Glo 3D, CTG)", "details": "for Dose.FC.CTG / Z.CTG: primary screen; for Dose.FC.CTG: ENR+CD 6 days, FC vs plate median; for Z.CTG: standard z score of FC"}, "[4]": {"details": "dose 0.08 uM (1st of 4 lines per treatment; dose not printed in this part)"}, "[5]": {"details": "dose 0.40 uM (2nd of 4 lines per treatment; dose not printed in this part)"}, "[6]": {"details": "dose 2.00 uM (3rd of 4 lines per treatment; dose not printed in this part)"}, "[7]": {"details": "dose 10.00 uM (4th of 4 lines per treatment; dose not printed in this part)"}}}
{"smiles": "N#Cc1c(O)c2c(-c3ccc(-c4ccccc4O)cc3)csc2[nH]c1=O", "note": "[A-769662]", "values": [{"measurement": "SSMD.LYZ.NS_Rep (strictly standardized mean difference)", "setting": "[1]; [4]", "result": 0.286}, {"measurement": "SSMD.LYZ.NS_Rep (strictly standardized mean difference)", "setting": "[1]; [5]", "result": 0.498}, {"measurement": "SSMD.LYZ.NS_Rep (strictly standardized mean difference)", "setting": "[1]; [6]", "result": 0.554}, {"measurement": "SSMD.LYZ.NS_Rep (strictly standardized mean difference)", "setting": "[1]; [7]", "result": 0.068}, {"measurement": "Dose.FC.LYZ.NS", "setting": "[1]; dose 0.08 uM", "result": 0.045, "unit": "log 2 fold change"}, {"measurement": "Z.LYZ.NS", "setting": "[1]; dose 0.08 uM", "result": 0.394}, {"measurement": "Dose.FC.LYZ.NS", "setting": "[1]; dose 0.40 uM", "result": 0.069, "unit": "log 2 fold change"}, {"measurement": "Z.LYZ.NS", "setting": "[1]; dose 0.40 uM", "result": 0.599}, {"measurement": "Dose.FC.LYZ.NS", "setting": "[1]; dose 2.00 uM", "result": 0.054, "unit": "log 2 fold change"}, {"measurement": "Z.LYZ.NS", "setting": "[1]; dose 2.00 uM", "result": 0.473}, {"measurement": "Dose.FC.LYZ.NS", "setting": "[1]; dose 10.00 uM", "result": 0.009, "unit": "log 2 fold change"}, {"measurement": "Z.LYZ.NS", "setting": "[1]; dose 10.00 uM", "result": 0.075}, {"measurement": "SSMD.LYZ.S_Rep (strictly standardized mean difference)", "setting": "[2]; [4]", "result": 0.365}, {"measurement": "Z.LYZ.S (standard z score)", "setting": "[2]; [4]", "result": 0.426}, {"measurement": "SSMD.LYZ.S_Rep (strictly standardized mean difference)", "setting": "[2]; [5]", "result": 0.472}, {"measurement": "Z.LYZ.S (standard z score)", "setting": "[2]; [5]", "result": 0.460}, {"measurement": "SSMD.LYZ.S_Rep (strictly standardized mean difference)", "setting": "[2]; [6]", "result": 0.488}, {"measurement": "Z.LYZ.S (standard z score)", "setting": "[2]; [6]", "result": 1.191}, {"measurement": "SSMD.LYZ.S_Rep (strictly standardized mean difference)", "setting": "[2]; [7]", "result": 0.119}, {"measurement": "Z.LYZ.S (standard z score)", "setting": "[2]; [7]", "result": 0.121}, {"measurement": "Dose.FC.LYZ.S", "setting": "[2]; dose 0.08 uM", "result": 0.066, "unit": "log 2 fold change"}, {"measurement": "Dose.FC.LYZ.S", "setting": "[2]; dose 0.40 uM", "result": 0.071, "unit": "log 2 fold change"}, {"measurement": "Dose.FC.LYZ.S", "setting": "[2]; dose 2.00 uM", "result": 0.184, "unit": "log 2 fold change"}, {"measurement": "Dose.FC.LYZ.S", "setting": "[2]; dose 10.00 uM", "result": 0.019, "unit": "log 2 fold change"}, {"measurement": "SSMD.CTG_Rep (strictly standardized mean difference)", "setting": "[3]; [4]", "result": "−0.255"}, {"measurement": "SSMD.CTG_Rep (strictly standardized mean difference)", "setting": "[3]; [5]", "result": 0.019}, {"measurement": "SSMD.CTG_Rep (strictly standardized mean difference)", "setting": "[3]; [6]", "result": "−0.312"}, {"measurement": "SSMD.CTG_Rep (strictly standardized mean difference)", "setting": "[3]; [7]", "result": "−0.056"}, {"measurement": "Dose.FC.CTG", "setting": "[3]; dose 0.08 uM", "result": "−0.074", "unit": "log 2 fold change"}, {"measurement": "Z.CTG", "setting": "[3]; dose 0.08 uM", "result": "−0.177"}, {"measurement": "Dose.FC.CTG", "setting": "[3]; dose 0.40 uM", "result": 0.007, "unit": "log 2 fold change"}, {"measurement": "Z.CTG", "setting": "[3]; dose 0.40 uM", "result": 0.016}, {"measurement": "Dose.FC.CTG", "setting": "[3]; dose 2.00 uM", "result": "−0.127", "unit": "log 2 fold change"}, {"measurement": "Z.CTG", "setting": "[3]; dose 2.00 uM", "result": "−0.304"}, {"measurement": "Dose.FC.CTG", "setting": "[3]; dose 10.00 uM", "result": "−0.015", "unit": "log 2 fold change"}, {"measurement": "Z.CTG", "setting": "[3]; dose 10.00 uM", "result": "−0.036"}]}
